Patent publication US6410590B1, “Compounds having antitumor activity: process for their preparation and pharmaceutical compositions containing them” (Dr. Reddy's Research Foundation, priority 2000, dated 2002)
Read-outs that look alike come from different tables or passages of the source.

Experiments:
[1] = test system: MCF-7/ADR; assay: Sulforhodamine B growth inhibition, breast panel; type: cell-based, human; details: 48 h, SRB, read-out: GROWTH INHIBITION (GI 50)
Description: (§1) Each test compound was screened against a battery of cell lines representing eight different types of cancer. In a typical procedure 1×10^4 cells were seeded into each well of 96-well plates in 100 μL volume of RPMI-1640 containing antibiotics and 10% FCS.
(§2) The plates were incubated at 37° C. in presence of CO2. After 24 h, test compounds were evaluated at five 10 fold dilutions ranging from 100 to 0.01 μM. To each test well 100 μL of test compound solution was added and medium with vehicle was added to control wells and the plates were further incubated. After 48 h of incubation, plates were terminated by Sulforhodamine B method.
(§3) The optical density which is proportional to protein mass, is then read by automated spectrophotometric plate readers at a wavelength of 515 nm.

[2] = test system: U251; assay: Sulforhodamine B growth inhibition, CNS panel; type: cell-based, human; details: SRB, read-out: GROWTH INHIBITION (GI 50)
Description: as §1, §2, §3

[3] = test system: SW-620; assay: Sulforhodamine B growth inhibition, colon panel; type: cell-based, human; details: SW-620, colon, 48 h, SRB, read-out: GROWTH INHIBITION (GI 50)
Description: as §1, §2, §3

[4] = test system: H522; assay: Sulforhodamine B growth inhibition, lung panel; type: cell-based, human; details: SRB, read-out: GROWTH INHIBITION (GI 50)
Description: as §1, §2, §3

[5] = test system: M14; assay: Sulforhodamine B growth inhibition, melanoma panel; type: cell-based, human; details: 48 h, SRB, read-out: GROWTH INHIBITION (GI 50)
Description: as §1, §2, §3

[6] = test system: SKOV-3; assay: Sulforhodamine B growth inhibition, ovarian panel; type: cell-based, human; details: SKOV-3, ovarian, 48 h, SRB, read-out: GROWTH INHIBITION (GI 50)
Description: as §1, §2, §3

[7] = test system: DU145; assay: Sulforhodamine B growth inhibition, prostate panel; type: cell-based, human; details: SRB, read-out: GROWTH INHIBITION (GI 50)
Description: as §1, §2, §3

[8] = test system: A498; assay: Sulforhodamine B growth inhibition, renal panel; type: cell-based, human; details: 48 h, SRB, read-out: GROWTH INHIBITION (GI 50)
Description: as §1, §2, §3

[9] = Plasma triglyceride and body weight reduction in Swiss albino mice; type: in vivo; details: for Percentage reduction TG: plasma triglyceride
Description: (b) Plasma triglyceride and body weight reduction in Swiss albino mice Male Swiss albino mice (SAM) were obtained from NIN and housed in DRF animal house. All these animals were maintained under 12 hour light and dark cycle at 25±1° C. Animals were given standard laboratory chow (NIN, Hyderabad, India) and water, ad libitum. SAM of 20-25 g body weight range (Oliver, P., Plancke, M. O., Marzin, D., Clavey, V., Sauzieres, J and Fruchart, J. C. Effects of fenofibrate, gemfibrozil and nicotinic acid on plasma lipoprotein levels in normal and hyperlipidemic mice. Atherosclerosis. 1988. 70: 107-114).
The test compounds were administered orally to Swiss albino mice at 0.3 to 500 mg/kg dose for 6 days. Control mice were treated with vehicle (Chremophore/DMSO/H2O; dose 10 ml/kg).
The blood samples were collected in fed state 1 hour after drug administration on 0 and 6 day of treatment. The blood was collected from the retro-orbital sinus through heparinised capillary in EDTA containing tubes. After centrifugation, plasma sample was separated for triglyceride (Wieland, O. Methods of Enzymatic analysis. Bergermeyer, H. O., Ed., 1963. 211-214; Trinder, P. Ann. Clin. Biochem. 1969. 6: 24-27). Measurement of plasma triglyceride was done using commercial kits (Dr. Reddy's Diagnostic Division, Hyderabad, India).
The formula used to measure percent reduction in blood sugar/triglycerides is given above.

[10] = test system: HIV-1/MN; assay: Anti HIV activity, P24 antigen in infected PM-1 cells; type: cell-based; details: 96 h; for inhibition at 1 µM: Human immunodeficiency virus 1, PM1, 1 μM, read-out: Percent Inhibition
Description: Human CD4+ T cell line PM-1 used in the assay was cultured in RPMI-1640 medium containing 10% Fetal bovine serum, 2 g/L sodium bicarbonate, 100,000 units/L Pencillin-G and 100 mg/L streptomycin. Healthy PM-1 cells were plated on the first day in a 96 well plate at […]. After 24 h HIV-1/MN was added to the culture and incubated for 2 h for infection. Cells were washed twice with PBS to remove the virus in the culture. Different concentrations of DRF compounds ranging from 10^−4 to 10^−8 M were added to the culture and incubated for 96 h. The viability of cells was then assessed by standard MTT assay and the viral antigen P24 levels were estimated by ELSA method. Based on the MTT assay values the P 24 antigen values were corrected.
All the samples were tested in triplicates and the average was used for calculations. AZT was used as standard compound for comparison.

[11] = test system: Human lymphocytes; assay: Lymphocyte proliferation, tritiated thymidine incorporation; type: cell-based; details: 1 μM; PHA-stimulated human lymphocytes
Description: Human lymphocycles were isolated from whole blood by using Ficoll Hypaque Plus (Amersham). On day one, 1 million lymphocytes were seeded into each well of 96 well plate in 100 μL volume of RPMI 1640 medium containing 10% FCS and Phytohemagglutitin A at 10 μg/ml concentration. Plates were incubated at 37° C. in CO2 incubator for 24 h. Test compounds at various concentrations were added to test wells and only medium with vehicle was added to control wells. After 48 h of incubation […] of tritiated thymidine was added to each well. After 24 h of thymidine addition the cells were harvested and the incorporated radioactivity was determined.
Stimulation index (si) was calculated using the formula, […]

[12] = test system: tumor cell lines; details: cited from earlier work
[13] = test system: HIV-1(IIIB); details: cited from earlier work
[14] = test system: UACC62; assay: Sulforhodamine B growth inhibition, melanoma panel; type: cell-based; details: Homo sapiens, UACC-62, 48 h, SRB, read-out: GROWTH INHIBITION (GI 50)
Description: as §1, §2, §3

[15] = test system: KB; details: cited from earlier work
[16] = test system: P388 lymphocytic leukemia; details: cited from earlier work

Molecule	GI50 ([1]; Homo sapiens, NCI/ADR-RES) [nM]	GI50 ([2]; Homo sapiens, U-251, 48 h) [nM]	GI50 ([3]; Homo sapiens) [nM]	GI50 ([4]; Homo sapiens, NCI-H522, 48 h) [nM]	GI50 ([5]; Homo sapiens) [nM]	GI50 ([6]; Homo sapiens, SK-OV-3) [nM]	GI50 ([7]; Homo sapiens, DU-145, 48 h) [nM]	GI50 ([8]; Homo sapiens) [nM]	other results
CCC(=O)OC[C@]1(C)C(OC(=O)CC)CC[C@]2(C)C(C/C=C3/C(=O)OCC3OC(=O)/C=C/c3ccc(OC)cc3)[C@]3(CCC12)CO3 (stereo partly drawn) [Example-9, 14-[4′-METHOXYCINNAMOYL]3,19-DIPROPIONYL 8,17-EPOXY ANDROGRAPHOLIDE]	3000	3000	600	4800	750	2000	2000	3000	–
CCC(=O)OC[C@@]1(C)C2CC[C@]3(CO3)C(C/C=C3/C(=O)OC[C@H]3OC(=O)/C=C/c3ccc4c(c3)OCO4)[C@@]2(C)CC[C@H]1OC(=O)CC (stereo partly drawn) [Example 11, 14-[3′,4′-METHYLENEDIOXYCINNAMOYL]3,19-DIPROPIONYL 8,17-EPOXY ANDROGRAPHOLIDE]	–	–	–	–	–	–	–	–	melting point: 76.7 °C
3,14,19-TRIACETYL 8,17-EPOXY ANDROGRAPHOLIDE [Example-2]	–	–	–	–	–	–	–	–	GI50 [1]: 5500 nM; GI50 ([2]; 48 h): 3000 nM; GI50 [3]: 1000 nM; GI50 ([4]; 48 h): 20000 nM; GI50 [5]: 7500 nM; GI50 [6]: 4000 nM; GI50 ([7]; 48 h): 20000 nM; GI50 [8]: 100 nM; Percentage reduction TG ([9]; 250 mg/kg orally for 6 days): 19%; Percent Inhibition ([10]; 0.1 μM): 75.31%; Percent Inhibition ([10]; 1 μM): 77.25%; Stimulation Index (SI) [11]: 32
C=C1CCC2[C@](C)(CC[C@@H](O)[C@@]2(C)CO)C1/C=C/C1=CCOC1=O (stereo partly drawn) [14-deoxy-11,12-didehydroandrographolide]	–	–	–	–	–	–	–	–	cytotoxic activity in tumor cell lines [12]: no cytotoxic activity
CCC(=O)OC[C@@]1(C)C2CC[C@]3(CO3)C(C/C=C3/C(=O)OC[C@H]3OC(=O)/C=C/c3ccc(OC)c(OC)c3)[C@@]2(C)CC[C@H]1OC(=O)CC (stereo partly drawn) [Example-10, 8,17-EPOXY 14-[3′,4′-DIMETHOXYCINNAMOYL]3,19-DIPROPIONYL ANDROGRAPHOLIDE]	1500	2000	400	7500	800	2500	2500	3500	–
C=C1CC[C@@H]2[C@](C)(CO[C@@H]3O[C@H](CO)[C@@H](O)[C@H](O)[C@H]3O)CCC[C@@]2(C)[C@@H]1CCC1=CCOC1=O [neoandrographolide]	–	–	–	–	–	–	–	–	cytotoxic activity in tumor cell lines [12]: no cytotoxic activity
CC1(C)OC[C@@]2(C)C3CCC4(CO4)C(C/C=C4/C(=O)OC[C@H]4O)[C@@]3(C)CC[C@H]2O1 (stereo partly drawn) [Example 5, 8,17-EPOXY ANDROGRAPHOLIDE 3,19-ACETONIDE]	–	–	–	–	–	–	–	–	melting point: 179 °C
Dehydroandrographolide Succinic acid monoester [DASM]	–	–	–	–	–	–	–	–	minimal concentration inhibitory to HIV-1(IIIB) [13]: 1.6 to 3.1 µg/mL
CCC(=O)OC[C@@]1(C)C2CC[C@]3(CO3)C(C/C=C3/C(=O)OC[C@H]3OC(=O)CNC(=O)OC(C)(C)C)[C@@]2(C)CC[C@H]1OC(=O)CC (stereo partly drawn) [Example-13, 14-[N-BOC GLYCINYL]3,19-DIPROPIONYL 8,17-EPOXY ANDROGRAPHOLIDE]	–	–	–	–	–	–	–	–	Percentage reduction TG ([9]; 250 mg/kg orally for 6 days): 31%; inhibition at 1 µM [10]: 73.9%; Stimulation Index (SI) [11]: 24
CCC(=O)OC[C@@]1(C)C2CC[C@]3(CO3)C(C/C=C3/C(=O)OC[C@H]3OC(=O)/C=C/c3ccccc3)[C@@]2(C)CC[C@H]1OC(=O)CC (stereo partly drawn) [Example-8, 14-CINNAMOYL 3,19-DIPROPIONYL 8,17-EPOXY ANDROGRAPHOLIDE]	80	6000	2500	20000	2500	10000	4000	3000	–
C[C@]12CC[C@@H](OC(=O)CCl)[C@@](C)(COC(=O)CCl)C1CC[C@]1(CO1)C2C/C=C1/C(=O)OC[C@H]1OC(=O)CCl (stereo partly drawn) [Example-4, 3,14,19-TRIS CHLORO ACETYL 8,17-EPOXY ANDROGRAPHOLIDE]	800	800	25000	5500	–	450	4500	15000	GI50 [14]: 550 nM
C=C1CC[C@@H]2[C@](C)(CO)[C@H](O)CC[C@@]2(C)[C@@H]1C/C=C1/C(=O)OC[C@H]1O [Andrographolide]	–	–	–	–	–	–	–	–	cytotoxic activity against KB [15]: potent cytotoxic activity; cytotoxic activity against P388 [16]: potent cytotoxic activity
C[C@]12CC[C@@H](O)[C@@](C)(CO)C1CC[C@]1(CO1)C2C/C=C1/C(=O)OC[C@H]1OC(=O)/C=C/c1ccccc1 (stereo partly drawn) [Example-7, 14-CINNAMOYL 3,19-DIHYDROXY 8,17-EPOXY ANDROGRAPHOLIDE]	2000	6000	500	6000	1000	4000	5500	9000	Percentage reduction Body weight ([9]; 100 mg/kg orally for 6 days): 29%; Percentage reduction TG ([9]; 100 mg/kg orally for 6 days): 42%; Percentage reduction Body weight ([9]; 250 mg/kg orally for 6 days): 13%; Percentage reduction TG ([9]; 250 mg/kg orally for 6 days): 52%; Percentage reduction TG ([9]; 500 mg/kg orally for 6 days): 62%; inhibition at 1 µM [10]: 68.4%; Stimulation Index (SI) [11]: 25
